From ChEMBL document CHEMBL3507680, “University of Dundee, Gates Library screen for HepG2 cell viability” come the findings set out here.

The nature of the data set: Human HepG2 cell viability assay in 384 well format. In kind it is toxicity, cell-based. More on the design: dose 125 nL, time 70.5 hour; cytotoxicity at 70.5 h: concentration not given beside the values. The settings on record: HepG2 cells, read-out: Inhibition.

With `O=C(O)C1CCCN1c1nc(-c2ccc(Cl)c(Cl)c2)cc(C(F)(F)F)n1` (stereo unspecified), the cytotoxicity at 70.5 h is -3.95%. In the case of `N#Cc1ccc(OC[C@]23COC[C@H]2CN(Cc2nccs2)C3)nc1`, the cytotoxicity at 70.5 h was -4.7%.

As to `Cc1nocc1C(=O)N1CCCC2(CCN(c3cnn(C)c3)C2=O)C1` (stereo unspecified), the cytotoxicity at 70.5 h is -3.71%. Turning to `Cc1ccc(CN2C[C@@H]3COC[C@]3(COc3ccc(C#N)cn3)C2)o1`, the cytotoxicity at 70.5 h came out at 7.17%. As for `Cc1cc(C(=O)NCC(C)C)nn1C`, the figure is -5.81%; as for `CCn1cc(C(=O)NCc2ccc3c(c2)OCO3)c(C)n1`, -1.15%. As for `CCn1cc(CNc2ccc(F)c(F)c2)cn1`, the figure is 8.3%; as for `O=C(O)Cn1nc(C2CC2)c2c(-c3ccc(F)cc3)ccnc21`, -10.6%; as for `COC(=O)c1ccc(OC)c(Cn2cc(Br)cn2)c1`, -16.7%.

For `Cc1nn(C)cc1-c1cc(C(F)(F)F)nn1CCC#N`, the cytotoxicity at 70.5 h was -1.92%. With `Cc1ccc(Cn2nc(C)c3c(C(=O)O)c(Cl)c(C)nc32)cc1`, the cytotoxicity at 70.5 h is -12.9%. As to `COC(=O)c1c(Cl)c(C2CC2)nc2onc(C)c12`, the cytotoxicity at 70.5 h was 2.98%. For the compound `COC(=O)c1cc(C2CC2)nc2c(Cl)cnn12`, the cytotoxicity at 70.5 h was found to be 24.9%. As to `Cc1c(-c2cc(C(F)(F)F)nc(N3CCC(N)CC3)n2)cnn1C`, the cytotoxicity at 70.5 h stood at 32.2%. For the compound `CNC(=O)Cc1n[nH]c(-c2cncc(Br)c2)n1`, the cytotoxicity at 70.5 h came out at 27.1%.

On to `CCOC(=O)Cc1n[nH]c(-c2cncc(Br)c2)n1`, for which the cytotoxicity at 70.5 h turned out to be 7.76%. The result for `O=C(O)CCCC(=O)Nc1cnn(COc2ccc(F)cc2Cl)c1` reads 7.18%. Turning to `Cc1ccnc(NC(=O)CCc2cnn(C)c2C)c1`, the cytotoxicity at 70.5 h is -4.47%. The result for `O=C(O)CCC(=O)Nc1nn(Cc2ccccc2Cl)cc1Cl` reads -5.22%; that for `CCN(CC)C(=O)c1ccn(COc2ccc(F)cc2)n1`, -10.8%. `COCCNc1cc(C)nn2cnnc12`: the cytotoxicity at 70.5 h was 11.1%. As to `CC(=O)Nc1ncc(S(=O)(=O)Nc2ccccc2)s1`, the cytotoxicity at 70.5 h is -11.1%. As for `CC(=O)Nc1ncc(S(=O)(=O)Nc2cccc(C)c2)s1`, the figure is -12.5%. On to `COCCCNc1cc(C)nn2cnnc12`, for which the cytotoxicity at 70.5 h was -4.69%. Regarding `C=C/C=c1\c(=C/C)oc2c(NCc3ccccc3)nc(CC)nc12`, the cytotoxicity at 70.5 h came to 11.2%. Take `O=C(CSc1nc2nncc-2c(O)n1-c1ccccc1)N1CCOCC1`: the cytotoxicity at 70.5 h was -10.6%.

Take `CN1CCc2nc3c(c(N)c2C1)CCCN3C`: the cytotoxicity at 70.5 h was -16.1%.

For `Cc1c(CN2CCOCC2)c(O)n(CCc2ccccc2)c(=O)c1C#N`, the cytotoxicity at 70.5 h was -9.75%.

As for `CCc1ccc(NC(=O)c2n[nH]c(-n3cnnc3)n2)cc1`, the cytotoxicity at 70.5 h was -6.66%.

Regarding `COCC(=O)Nc1nn(Cc2ccc(F)cc2)cc1Cl`, the cytotoxicity at 70.5 h is -5.91%. As for `CCN(CC)C(=O)c1ccn(COc2ccc(F)cc2F)n1`, the cytotoxicity at 70.5 h is -7.67%.

As for `CCC(C)NC(=O)c1ccn(COc2ccccc2Cl)n1` (stereo unspecified), the cytotoxicity at 70.5 h is -1.06%. Take `CCN(Cc1nonc1C)C(=O)c1ccc(Br)o1`: the cytotoxicity at 70.5 h was -4.49%. As to `Cc1c2nnn(CC(=O)N(C)C)c(=O)c2nn1C`, the cytotoxicity at 70.5 h is -8.25%.

On to `Cc1nn(C)c2c(=O)n(Cc3ccc(Cl)cc3)nnc12`, for which the cytotoxicity at 70.5 h was -9.56%.

For the compound `Cc1nn(C)c2c(NCc3cccnc3)nc(C(C)C)nc12`, the cytotoxicity at 70.5 h stood at 12.4%. For `COc1ccccc1Nc1nc2c(C)nn(C)c2c(=O)n1C`, the cytotoxicity at 70.5 h was found to be 26.9%. For the compound `COc1ccc(Nc2nc3c(C)nn(C)c3c(=O)n2C)c(C)c1`, the cytotoxicity at 70.5 h is 0.529%. The result for `CCn1c(NCc2ccccn2)nc2c(C)nn(C)c2c1=O` reads -3.41%; that for `CCn1c(NCc2cccnc2)nc2c(C)nn(C)c2c1=O`, -4.56%; that for `CCn1c(NCc2ccc(OC)cc2)nc2c(C)nn(C)c2c1=O`, -6.73%. As for `Cc1nn(C)c2c(=O)n(C(C)C)c(NCC3CCCO3)nc12` (stereo unspecified), the figure is -9.24%.

For `CCCn1c(N2CCCC(C)C2)nc2c(C)nn(C)c2c1=O` (stereo unspecified), the cytotoxicity at 70.5 h is -14.3%. In the case of `O=C(c1n[nH]cc1Cl)N1CCOCC1`, the cytotoxicity at 70.5 h is -6.1%.

Regarding `CC(C)(CO)NCc1nn(Cc2ccccc2)nc1-c1ccccc1`, the cytotoxicity at 70.5 h came to 27.2%. As to `COc1c(C)cnc(CNCC(C)C)c1C`, the cytotoxicity at 70.5 h was -4.09%. Turning to `Cc1cccc(N2CC(c3nnc(N)s3)CC2=O)c1` (stereo unspecified), the cytotoxicity at 70.5 h was -13.7%. Consider `Nc1nnc(C2CC(=O)N(c3ccccc3)C2)s1` (stereo unspecified), for which the cytotoxicity at 70.5 h was -16.4%.

Regarding `Cc1ccccc1N1CC(c2nnc(N)s2)CC1=O` (stereo unspecified), the cytotoxicity at 70.5 h came to 3.37%.

Consider `Cc1ccc(C2NC(=O)c3cc(C(C)C)sc3N2)cc1` (stereo unspecified), for which the cytotoxicity at 70.5 h was -5.82%. Regarding `CCn1cc(S(=O)(=O)Nc2nc3c(s2)CCCC3)cn1`, the cytotoxicity at 70.5 h is -5.28%. The result for `NC(=O)c1c(-c2ccc(Cl)cc2)csc1NC(=O)CCC(=O)O` reads -4.48%; that for `NC(=O)c1c(-c2ccc(Cl)cc2Cl)csc1NC(=O)CCC(=O)O`, 20.5%.

In the case of `CCCn1c(SCC(N)=O)nnc1-c1csc2c1CCCC2`, the cytotoxicity at 70.5 h was -9.81%.

For `CCC(CC)CN1CCN(CC(=O)Nc2ccc3nsnc3c2)CC1`, the cytotoxicity at 70.5 h was 3.54%. On to `CCC(CC)CN1CCN(CC(=O)Nc2cccc3nsnc23)CC1`, for which the cytotoxicity at 70.5 h is -15.1%. As for `CCn1c(SCC(N)=O)nnc1C(C)NC(=O)c1ccc(Cl)cc1` (stereo unspecified), the figure is 17.8%; as for `N#Cc1cc(C#N)c(SCC(=O)NCc2ccc(F)cc2)nc1N`, 27.8%. For the compound `O=C1NC2(CCCCC2)c2nnnn2-c2ccc(Br)cc21`, the cytotoxicity at 70.5 h is -5.57%.

As to `CCN1CCC2(CC1)NC(=O)c1cc(Br)ccc1-n1nnnc12`, the cytotoxicity at 70.5 h is -5.39%. Turning to `CC(C)N1CCC2(CC1)NC(=O)c1cc(Br)ccc1-n1nnnc12`, the cytotoxicity at 70.5 h was -4.14%. As to `Clc1ccc(-n2nnnc2C2(NCc3ccco3)CCCCC2)cc1`, the cytotoxicity at 70.5 h is -11.2%.

With `CN1CCN(c2ncc3c(=O)n(Cc4ccco4)ccc3n2)CC1`, the cytotoxicity at 70.5 h was -9.22%.

Regarding `CCCC(=O)N1CCC(c2cc3cccnc3c(O)n2)CC1`, the cytotoxicity at 70.5 h was -5.85%. With `Cc1cc(C)nc(C2CCN(c3ccncn3)C2)n1` (stereo unspecified), the cytotoxicity at 70.5 h was -2.27%. Regarding `Cc1c[nH]nc1C1CCN(C(=O)C2CCCC2)C1` (stereo unspecified), the cytotoxicity at 70.5 h was -5.07%. For `c1ccc(N2CCN(Cc3cnc(C4CCCCO4)nc3)CC2)cc1` (stereo unspecified), the cytotoxicity at 70.5 h came to 4.6%. As to `CC(=O)N[C@@H]1CN(C(=O)CC2CC2)C[C@H]1O`, the cytotoxicity at 70.5 h was -4.46%.

`CN(C)c1cc(C2CCCN(C(=O)c3ccc(=O)[nH]n3)C2)ccn1` (stereo unspecified): the cytotoxicity at 70.5 h is -1.67%. For `COc1ccccc1C1Cn2ccnc2CN1Cc1c[nH]nc1C` (stereo unspecified), the cytotoxicity at 70.5 h was -1.22%. Turning to `Nc1nccnc1C1CN(Cc2ccc(OCC(=O)O)cc2)CCO1` (stereo unspecified), the cytotoxicity at 70.5 h came out at 0.531%. The result for `NC(=O)c1ccccc1Oc1cnc(C2CCCN2)cn1` (stereo unspecified) reads -7.87%. As to `NCC(=O)N1CCC(c2cccc(Oc3ccccc3)n2)CC1`, the cytotoxicity at 70.5 h was -7.22%. For the compound `Nc1nccc(C2CCN(CCO)C2)n1` (stereo unspecified), the cytotoxicity at 70.5 h is -21.4%. As to `CN(C)c1nccc(C2CCN(C3CCCCC3O)CC2)n1` (stereo unspecified), the cytotoxicity at 70.5 h came to 21.1%.

Consider `COCC(=O)N1CCC(c2cc(-c3ccc(N)nc3)cc(C)n2)CC1`, for which the cytotoxicity at 70.5 h turned out to be 19.1%. The result for `CNc1nc(C2CCCN(C(=O)CNC(C)=O)C2)nc2c1CN(C)CC2` (stereo unspecified) reads 11.4%; that for `CCN1CCCC(O)(c2nc(C)c(CCOc3ccccc3F)s2)CC1` (stereo unspecified), -8.35%. With `Cc1cc(C)n2ncc(CN3C[C@@H](O)[C@H](Oc4ccccc4)C3)c2n1`, the cytotoxicity at 70.5 h is -13.5%.

For `Cc1nnc(Nc2cccc(C3CCN(Cc4ncc[nH]4)CC3)n2)s1`, the cytotoxicity at 70.5 h stood at 18.8%.

As to `Cc1cc(C)nc(N2CCC(c3noc(C)n3)CC2)n1`, the cytotoxicity at 70.5 h is -7.52%. As for `CN(C)c1cccc(C2CCCN2S(=O)(=O)c2cn(C)cn2)n1` (stereo unspecified), the cytotoxicity at 70.5 h is -8.98%. With `CC(=O)N1CCC[C@@H](NCc2ccc(F)cc2)[C@@H]1c1ccc(C)s1`, the cytotoxicity at 70.5 h is -8.87%.

Regarding `CC(C)Nc1cccc(CC2CCN(S(C)(=O)=O)CC2)n1`, the cytotoxicity at 70.5 h came out at 19.5%. With `Cc1nc(C2CN(Cc3scnc3C)CCO2)cc(N(C)C)n1` (stereo unspecified), the cytotoxicity at 70.5 h was found to be 5.46%. Take `CCOC(=O)c1n[nH]cc1-c1cncn1CC(C)n1nc(C)cc1C` (stereo unspecified): the cytotoxicity at 70.5 h was -8.74%. For `Cc1c[nH]nc1C1CCN(C(=O)Cn2cccn2)C1` (stereo unspecified), the cytotoxicity at 70.5 h is -7.3%. Regarding `CNC(=O)c1cc(C2CCCN2)n[nH]1` (stereo unspecified), the cytotoxicity at 70.5 h is -3.32%.

`CCc1ncc(CN[C@@H]2CCCN(C(C)=O)[C@H]2c2ccc(C)s2)cn1`: the cytotoxicity at 70.5 h is -6.59%. Consider `Cc1csc(NC(=O)c2cnc(C3CCCN3)cn2)n1` (stereo unspecified), for which the cytotoxicity at 70.5 h is -13.1%.

On to `Cc1csc(NC(=O)c2cnc(C3CCNCC3)cn2)n1`, for which the cytotoxicity at 70.5 h was -11.9%.

As for `Cc1ccc(C(=O)N2C[C@@H]3CCCO[C@@H]3[C@H](N(C)Cc3ccco3)C2)o1`, the cytotoxicity at 70.5 h turned out to be 28.7%. In the case of `Cc1ccc2nc(C3CCN(CC4CC4)CC3)nn2c1`, the cytotoxicity at 70.5 h was 32.6%. Regarding `O=S(=O)(C1CC1)N1CCO[C@H]2[C@@H](Oc3cccnc3)CC[C@@H]21`, the cytotoxicity at 70.5 h is -5.72%.

For `O=S(=O)(C1CC1)N1CCO[C@H]2[C@H](Oc3cccnc3)CC[C@@H]21`, the cytotoxicity at 70.5 h is -4.91%. Consider `c1cc(-c2ccc3c(c2)CCC32CCN(c3nncs3)CC2)ccn1`, for which the cytotoxicity at 70.5 h was -2.69%. On to `COCCN1C[C@@H]2[C@@H](OC)CCN(Cc3ccc(C)o3)[C@@H]2C1`, for which the cytotoxicity at 70.5 h was -1.05%. As for `c1cncc(O[C@H]2CC[C@H]3[C@H]2OCCN3C2CCC2)c1`, the figure is -3.23%; as for `CN1CC(=O)N(c2cnn(C)c2)CC12CCN(Cc1cccs1)C2` (stereo unspecified), -1.01%; as for `CNc1cc(C2CCCN2C(=O)c2ccc(=O)[nH]n2)ccn1` (stereo unspecified), -2.78%.

With `O=C(O)c1cnc2c(Br)cccc2c1O`, the cytotoxicity at 70.5 h was -5.88%.
